The source of these data is patent US20180344726A1, “ABUSE RESISTANT TRANSDERMAL DELIVERY DEVICES AND COMPOSITIONS COMPRISING AN OPIOID AGONIST AND A NON-TRANSDERMALLY DELIVERED N-OXIDE DERIVATIVE OF AN OPIOID ANTAGONIST FOR THE TREATMENT OF PAIN” (priority 2015, published 2018).

Common to all, as to format: physicochemical
Data set [1] is described as follows: pKa analysis by pH-metric triple titration. Conditions: aqueous solution, […] C., […] KCl, read-out: pKa. As for the experimental part: (§1) pKa analysis was performed using a pH-metric method. […] No precipitation or degradation was observed and two pKas were determined from the potentiometric data. Log P was determined using the potentiometric (pH-metric method). The sample was titrated in various ratios of octanol/water in two titrations covering the pH range 2.0-12.0 at concentrations of 1.9-1.1 mM. The shift of the aqueous pKas in the presence of octanol was used to determine the log P of the neutral species.

Data set [2] is described as follows: Log P by potentiometric (pH-metric) octanol/water titration. Conditions: Neutral species, 25.0 ° C., 0.15M KCl, read-out: LogP. On the procedure:
as §1

Data set [3] in a line: Concentration of saturated antagonist solutions in phosphate buffer pH 5.0. Particulars: phosphate buffer pH 5.0, stirred overnight, filtered. On the procedure: The determination of in vitro skin permeation was performed with saturated solutions of the respective antagonist species. Therefore an excess of the antagonist was weighed in phosphate buffer of pH 5.0 and stirred overnight. pH was monitored and, if necessary, adjusted. The cells were incubated at 32° C. Solutions were filtrated through a syringe filter (1 μm PTFE) prior to application into the diffusion cells. Concentrations of the solutions were determined.
The determination of naloxone and naloxone N-oxide in the acceptor medium of the in vitro skin permeations samples (receptor phase) was done by HPLC with UV-detection.

Like-named read-outs stand apart in the source and are kept apart here.

In general, pKa refers to the negative logarithm of the acid dissociation constant. The term logP denotes a log measure of how a compound divides between an organic and an aqueous phase. Consider `C=CCN1CC[C@]23c4c5ccc(O)c4O[C@H]2C(=O)CC[C@@]3(O)[C@H]1C5` [Naloxone, (4R,4aS,7aR,12bS)-4a,9-dihydroxy-3-prop-2-enyl-2,4,5,6,7a,13-hexahydro-1H-4,12-methanobenzofuro[3,2-e]isoquinoline-7-one, reference compound], for which the pKa in data set [1] (Type Acid) was found to be 9.15 ± 0.01; in data set [1] (Type Base), 8.07 ± 0.01. Besides, in data set [2], the logP worked out at 1.97. Further, in data set [3], the “Concentration saturated solution c” value turned out to be 4460 µg/mL.
